Data on 1 compound can be found in patent US8455519B2, “Drug active in neuropathic pain” (Aziende Chimiche Riunite Angelini Francesco A.C.R.A.F. …, priority 2007, dated 2013).

One data set addresses T1, hERG ion channel (Homo sapiens, UniProt Q12809).
T1 construct: expressed in transfected cells; host or cells: HEK-293
Kind of data set: cell-based. The source says: Confirmation of interaction with the potassium channels was made by means of a functional cell test (patch clamp) that uses HEK-293 recombinant human cells that stably express the hERG ion channel, as described in Zhou Z. et al. Biophys. J. 1998; 74:230.
Confirmation of interaction with the potassium channels was made by means of the patch clamp test described in Zhou Z. et al. Biophys. J. 1998; 74:230 using the recombinant human cell line HEK-293, which stably expresses the hERG ion channel.

The target of a further data set is T2, 5-HT4 receptor (Homo sapiens, UniProt Q13639).
T2 construct: expressed in transfected cells
Kind of data set: Binding to the serotoninergic receptors. The protocol:
(§1) Confirmation of the binding to the serotoninergic receptors was performed by means of the biochemical test on purified membranes from recombinant human cells that stably express the specific receptors or from animal tissues selected as described in particular for each type of serotoninergic receptor, in: Martin G. R. and Humphrey P. P. A. Neuropharmacol. 1994, 33:261; Hoyer D. Eur. J. Pharmacol. 1985, 118:1; Bonhaus DW et al. Br. J. Pharmacol. 1995, 115:622; Wolf WA et al. J. Neurochem. 1997, 69:1449; Boess F G et al. Neuropharmacol. 1997, 36:637; Mialet J et al. Br. J. Pharmacol. 2000; 129:771; Rees S et al. FEBS Lett. 1994, 355:242; Monsma F. J. et al. Mol. Pharmacol. 1993, 43:320; Roth BL et al. J. Pharmacol. Exp. Ther. 1994, 268: 1403; and Shearman L P et al. Am. J. Physiol. 1998, 275: C1621.
(§2) Confirmation of the binding to the serotoninergic receptors was made using purified membranes from selected animal tissues or from recombinant human cells that stably express the specific receptors, as described in: Martin G. R. and Humphrey P. P. A. Neuropharmacol. 1994, 33:261; Hoyer D. Eur. J. Pharmacol. 1985, 118:1; Bonhaus DW et al. Br. J. Pharmacol. 1995, 115:622; Wolf WA et al. J. Neurochem. 1997, 69:1449; Boess FG et al. Neuropharmacol. 1997, 36:637; Mialet J et al. Br. J. Pharmacol. 2000, 129:771; Rees S et al. FEBS Lett. 1994, 355:242; Monsma F. J. et al. Mol. Pharmacol. 1993, 43:320; Roth BL et al. J. Pharmacol. Exp. Ther. 1994, 268: 1403; and Shearman LP et al. Am. J. Physiol. 1998, 275: C1621.

A further data set has as its target T3, 5-HT2A (Homo sapiens, UniProt P28223).
T3 construct: expressed in transfected cells
In words: Binding to the serotoninergic receptors. To be noted: purified membranes. The procedure:
as §1, §2

A further data set concerns the target 5-HT transporter - SERT (UniProt P31645). In words: Binding to the serotoninergic receptors. Conditions: purified membranes. The procedure:
as §1, §2

For a further data set, the target named is T4, 5-HT2C (UniProt P28335).
T4 sequence (P28335 1-458): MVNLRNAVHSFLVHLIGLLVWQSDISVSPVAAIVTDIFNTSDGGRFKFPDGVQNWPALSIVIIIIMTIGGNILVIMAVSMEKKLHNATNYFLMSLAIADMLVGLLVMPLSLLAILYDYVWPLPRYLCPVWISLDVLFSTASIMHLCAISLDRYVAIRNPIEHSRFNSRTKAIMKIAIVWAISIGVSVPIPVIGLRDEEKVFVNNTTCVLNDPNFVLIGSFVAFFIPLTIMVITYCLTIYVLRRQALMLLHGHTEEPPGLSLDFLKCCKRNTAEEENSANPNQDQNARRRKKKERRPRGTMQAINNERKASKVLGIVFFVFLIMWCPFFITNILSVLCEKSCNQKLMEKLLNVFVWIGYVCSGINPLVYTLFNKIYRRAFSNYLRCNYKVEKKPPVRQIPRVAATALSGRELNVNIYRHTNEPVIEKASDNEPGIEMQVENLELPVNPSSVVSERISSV
Kind of data set: Binding to the serotoninergic receptors. To be noted: purified membranes. The protocol: as §1, §2

In another data set the target is T5, 5-HT3 (UniProt P46098).
T5 sequence (P46098 1-478): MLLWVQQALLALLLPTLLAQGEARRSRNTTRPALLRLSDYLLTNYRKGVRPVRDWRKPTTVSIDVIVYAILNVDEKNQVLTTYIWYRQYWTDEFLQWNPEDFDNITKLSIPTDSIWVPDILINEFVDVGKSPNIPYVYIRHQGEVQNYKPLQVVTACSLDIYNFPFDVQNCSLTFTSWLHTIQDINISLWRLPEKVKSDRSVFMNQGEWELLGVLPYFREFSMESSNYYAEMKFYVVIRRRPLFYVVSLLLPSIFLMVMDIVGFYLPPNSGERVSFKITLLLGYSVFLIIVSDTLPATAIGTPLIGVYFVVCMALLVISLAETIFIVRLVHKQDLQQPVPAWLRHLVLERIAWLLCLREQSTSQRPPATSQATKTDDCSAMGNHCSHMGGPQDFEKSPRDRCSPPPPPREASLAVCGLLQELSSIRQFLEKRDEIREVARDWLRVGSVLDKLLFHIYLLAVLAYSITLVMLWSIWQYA
In words: Binding to the serotoninergic receptors. Conditions: purified membranes. The protocol: as §1, §2

Another data set addresses 5-HT6 (UniProt P50406). Kind of data set: Binding to the serotoninergic receptors. To be noted: purified membranes. The protocol: as §1, §2
The next data set addresses T6, 5-HT1B (Rattus norvegicus, UniProt P28564).
T6 construct: purified membranes from selected animal tissues; from tissue; host or cells: animal tissue membranes; rat brain inferred from Hoyer 1985
In words: Binding to the serotoninergic receptors. Conditions: purified membranes. The protocol: as §1, §2

The next data set has as its target T7, 5-HT5A (Homo sapiens, UniProt P47898).
T7 construct: expressed in transfected cells
Kind of data set: Binding to the serotoninergic receptors. Conditions: purified membranes. The procedure:
as §1, §2

The target of a further data set is 5-HT7 (UniProt P34969). Kind of data set: Binding to the serotoninergic receptors. To be noted: purified membranes. The procedure:
as §1, §2

A further data set addresses T8, 5-HT1A (Homo sapiens, UniProt P08908).
T8 sequence (P08908 1-422): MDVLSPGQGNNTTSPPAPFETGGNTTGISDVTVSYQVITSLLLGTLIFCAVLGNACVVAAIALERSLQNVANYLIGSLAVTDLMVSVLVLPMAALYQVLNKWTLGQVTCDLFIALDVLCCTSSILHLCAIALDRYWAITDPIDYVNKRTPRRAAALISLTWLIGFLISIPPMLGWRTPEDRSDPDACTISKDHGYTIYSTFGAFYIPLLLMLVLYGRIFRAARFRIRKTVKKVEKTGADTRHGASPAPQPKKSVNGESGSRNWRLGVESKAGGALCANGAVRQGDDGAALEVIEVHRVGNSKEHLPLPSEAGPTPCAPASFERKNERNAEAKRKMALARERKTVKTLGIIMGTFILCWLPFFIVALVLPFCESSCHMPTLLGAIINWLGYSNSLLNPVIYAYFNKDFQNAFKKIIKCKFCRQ
Kind of data set: Binding to the serotoninergic receptors. To be noted: purified membranes. The protocol:
as §1, §2

For the next data set, the target named is T9, 5-HT2B (Homo sapiens, UniProt P41595).
T9 construct: expressed in transfected cells
Kind of data set: Binding to the serotoninergic receptors. To be noted: purified membranes. The protocol: as §1, §2

Structures are written as SMILES.

T1 sequence (Q12809 whole entry): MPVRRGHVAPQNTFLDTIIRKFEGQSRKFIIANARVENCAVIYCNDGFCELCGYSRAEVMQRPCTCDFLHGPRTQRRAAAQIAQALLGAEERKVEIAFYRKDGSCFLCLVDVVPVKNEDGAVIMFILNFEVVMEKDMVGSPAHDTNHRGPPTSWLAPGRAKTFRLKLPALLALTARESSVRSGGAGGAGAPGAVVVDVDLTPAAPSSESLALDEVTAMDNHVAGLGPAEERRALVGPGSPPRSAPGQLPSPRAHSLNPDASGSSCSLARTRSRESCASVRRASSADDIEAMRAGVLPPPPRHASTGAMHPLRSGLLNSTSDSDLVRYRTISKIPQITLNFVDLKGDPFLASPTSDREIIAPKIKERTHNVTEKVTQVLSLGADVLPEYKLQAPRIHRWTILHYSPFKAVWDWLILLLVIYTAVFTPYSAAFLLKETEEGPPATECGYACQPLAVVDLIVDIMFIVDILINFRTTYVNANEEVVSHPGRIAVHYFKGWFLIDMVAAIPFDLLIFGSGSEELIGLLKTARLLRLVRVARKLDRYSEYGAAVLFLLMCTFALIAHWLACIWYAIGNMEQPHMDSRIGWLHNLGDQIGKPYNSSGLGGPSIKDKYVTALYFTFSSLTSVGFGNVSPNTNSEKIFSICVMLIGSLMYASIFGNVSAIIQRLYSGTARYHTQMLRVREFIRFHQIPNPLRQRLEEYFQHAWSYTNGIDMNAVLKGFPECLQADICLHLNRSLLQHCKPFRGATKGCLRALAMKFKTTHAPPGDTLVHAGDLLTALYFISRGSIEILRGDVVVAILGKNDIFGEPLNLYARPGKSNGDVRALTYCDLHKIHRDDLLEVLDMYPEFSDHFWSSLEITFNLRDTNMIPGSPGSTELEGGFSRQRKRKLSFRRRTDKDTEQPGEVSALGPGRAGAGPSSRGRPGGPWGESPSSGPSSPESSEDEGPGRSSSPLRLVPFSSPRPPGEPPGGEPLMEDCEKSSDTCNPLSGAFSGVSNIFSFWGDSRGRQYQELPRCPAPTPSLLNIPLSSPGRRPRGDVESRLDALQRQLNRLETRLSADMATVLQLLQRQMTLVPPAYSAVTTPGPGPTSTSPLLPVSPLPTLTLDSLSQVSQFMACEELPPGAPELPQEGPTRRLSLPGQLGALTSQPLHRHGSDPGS
T2 sequence (Q13639 1-378 isoform Q13639-5): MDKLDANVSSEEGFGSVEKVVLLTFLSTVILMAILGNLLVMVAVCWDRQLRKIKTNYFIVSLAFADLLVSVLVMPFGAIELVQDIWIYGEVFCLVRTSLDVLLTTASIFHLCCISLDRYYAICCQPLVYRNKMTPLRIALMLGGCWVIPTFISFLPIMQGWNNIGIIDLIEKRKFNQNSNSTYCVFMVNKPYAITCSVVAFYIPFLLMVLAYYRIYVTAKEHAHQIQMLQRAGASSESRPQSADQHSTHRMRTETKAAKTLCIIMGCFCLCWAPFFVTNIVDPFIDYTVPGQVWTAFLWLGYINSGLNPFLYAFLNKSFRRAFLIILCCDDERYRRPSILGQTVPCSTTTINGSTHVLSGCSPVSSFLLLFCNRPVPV
T6 sequence (P28564 whole entry): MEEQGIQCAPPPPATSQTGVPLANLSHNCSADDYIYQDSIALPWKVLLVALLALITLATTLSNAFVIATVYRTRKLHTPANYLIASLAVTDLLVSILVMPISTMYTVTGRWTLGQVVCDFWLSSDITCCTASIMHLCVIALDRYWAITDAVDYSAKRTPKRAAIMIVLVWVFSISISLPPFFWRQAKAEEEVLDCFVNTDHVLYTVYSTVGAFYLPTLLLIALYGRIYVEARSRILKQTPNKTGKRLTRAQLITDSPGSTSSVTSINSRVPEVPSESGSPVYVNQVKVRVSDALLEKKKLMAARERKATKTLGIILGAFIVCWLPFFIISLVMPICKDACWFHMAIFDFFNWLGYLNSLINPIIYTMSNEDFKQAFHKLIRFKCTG
Chain of 5-HT7 (P34969 1-432 limits assumed): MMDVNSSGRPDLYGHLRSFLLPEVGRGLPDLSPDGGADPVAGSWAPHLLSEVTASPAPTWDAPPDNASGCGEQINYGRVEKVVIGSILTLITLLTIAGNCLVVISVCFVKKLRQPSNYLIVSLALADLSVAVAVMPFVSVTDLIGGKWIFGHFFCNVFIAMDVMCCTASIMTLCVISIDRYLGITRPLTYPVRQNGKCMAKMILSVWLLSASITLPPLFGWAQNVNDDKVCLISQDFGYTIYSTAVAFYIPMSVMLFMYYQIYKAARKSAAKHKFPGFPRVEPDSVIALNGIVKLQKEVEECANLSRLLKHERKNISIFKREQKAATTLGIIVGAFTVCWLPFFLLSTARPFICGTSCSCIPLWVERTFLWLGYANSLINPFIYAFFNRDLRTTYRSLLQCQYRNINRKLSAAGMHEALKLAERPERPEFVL
T9 sequence (P41595 whole entry): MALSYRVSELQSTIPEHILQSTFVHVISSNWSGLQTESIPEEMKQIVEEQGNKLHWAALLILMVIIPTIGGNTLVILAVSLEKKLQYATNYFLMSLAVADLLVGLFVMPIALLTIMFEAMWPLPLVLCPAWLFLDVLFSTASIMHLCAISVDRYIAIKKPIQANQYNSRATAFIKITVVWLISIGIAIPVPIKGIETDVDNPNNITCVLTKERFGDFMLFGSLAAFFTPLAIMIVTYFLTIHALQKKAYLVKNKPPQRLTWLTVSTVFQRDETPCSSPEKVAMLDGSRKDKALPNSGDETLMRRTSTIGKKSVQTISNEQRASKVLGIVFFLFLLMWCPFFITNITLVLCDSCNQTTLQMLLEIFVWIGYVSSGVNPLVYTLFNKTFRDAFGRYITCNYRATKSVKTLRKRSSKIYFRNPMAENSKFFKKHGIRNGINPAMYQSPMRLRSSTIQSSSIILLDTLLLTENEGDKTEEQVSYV
T3 sequence (P28223 whole entry): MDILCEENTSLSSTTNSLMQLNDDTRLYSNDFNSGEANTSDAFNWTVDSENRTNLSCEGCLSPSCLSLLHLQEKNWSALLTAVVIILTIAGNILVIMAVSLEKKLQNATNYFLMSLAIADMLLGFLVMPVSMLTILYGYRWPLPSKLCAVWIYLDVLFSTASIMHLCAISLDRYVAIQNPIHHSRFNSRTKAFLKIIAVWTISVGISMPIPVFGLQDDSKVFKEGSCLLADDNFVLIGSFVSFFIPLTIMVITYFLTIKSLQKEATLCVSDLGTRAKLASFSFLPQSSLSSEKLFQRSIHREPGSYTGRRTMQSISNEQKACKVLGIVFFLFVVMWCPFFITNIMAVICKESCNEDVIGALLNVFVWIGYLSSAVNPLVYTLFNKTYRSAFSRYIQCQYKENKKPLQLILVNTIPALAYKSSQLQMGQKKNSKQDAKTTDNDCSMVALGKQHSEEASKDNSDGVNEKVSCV
T7 sequence (P47898 whole entry): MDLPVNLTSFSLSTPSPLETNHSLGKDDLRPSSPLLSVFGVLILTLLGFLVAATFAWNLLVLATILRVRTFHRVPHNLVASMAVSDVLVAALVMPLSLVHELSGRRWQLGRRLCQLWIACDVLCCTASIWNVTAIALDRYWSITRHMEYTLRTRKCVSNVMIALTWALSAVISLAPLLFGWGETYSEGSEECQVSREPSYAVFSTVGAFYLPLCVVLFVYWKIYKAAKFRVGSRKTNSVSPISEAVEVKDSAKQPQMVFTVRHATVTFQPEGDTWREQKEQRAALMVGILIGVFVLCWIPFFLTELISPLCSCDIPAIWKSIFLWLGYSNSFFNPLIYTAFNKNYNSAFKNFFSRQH

The compound `CC(C)n1nc(C(=O)NCC2CCN(CCc3ccc(C(=O)O)cc3)CC2)c2ccccc21` [Compound 1, 4-{2-[4-({[(1-Isopropyl-1H-indazol-3-yl)carbonyl]amino}methyl)piperidin-1-yl]ethyl}benzoic acid] registered a melting point of 179 to 181 °C. For the same compound, the IC50 against hERG ion channel was > 50 µM. Further, on hERG ion channel (human), the inhibition at 0.01 µM worked out at 0%, 0.1 µM produced 0% inhibition, testing at 1 µM gave an inhibition of 0.9% and the inhibition at 10 µM worked out at 6.5%. Testing at 50 µM against hERG ion channel (human) gave an inhibition of 18.8%. Also, the IC50 at 5-HT4 receptor amounted to 0.0008 µM. Further, the “inhibition of binding to the 5-HT4 receptor (selectivity, in words)” value at 5-HT4 receptor (versus the other serotoninergic receptors) was “selective inhibition of binding to the 5-HT4 receptor”. Also, the IC50 on 5-HT2A was > 10 µM. The IC50 at 5-HT transporter - SERT is > 10 µM. For the same compound, the IC50 on 5-HT2C was > 10 µM. Besides, the IC50 on 5-HT3 is > 10 µM. The IC50 on 5-HT6 was > 10 µM. Besides, the IC50 at 5-HT1B was > 10 µM. For the same compound, the IC50 at 5-HT5A is > 10 µM. Besides, the IC50 on 5-HT7 was > 10 µM. Besides, the IC50 at 5-HT1A was > 10 µM. For the same compound, the IC50 at 5-HT2B was > 10 µM.
